# Measured values: patent publication US20080026996A1, “Selective Vpac2 Receptor Reptide Agonists” (ELI LILLY AND COMPANY, priority 2004, published 2008)
# Where a SMILES comes first, the peptide text is derived from it. Where no end group is shown, it is not given here. [ ]: non-standard residue; d: D form. The star is where a group is joined. Orn = NCCC[C@H](N)C(=O)O; Hexanoyl = CCCCCC(=O)*; Aib = CC(C)(N)C(=O)O
# Tests used:
# [1] = Rat serum stability studies (remaining active peptide by DiscoveRx cAMP on CHO-VPAC2 cells); type: in vitro ADME
# Protocol: Store the aliquot with aprotinin at 4° C. Store the aliquot without aprotinin at 37° C. […] […] Incubate in room temperature for 30 minutes. Remove the supernatant. […] Incubate on the shaker (300 rpm) for 1 hour. Proceed as normal with the DiscoveRx kit. Include cAMP standards in column 12. Determine EC50 values from the cAMP assay data.
# human VPAC2 [2] = target: T1, human VPAC2 (Homo sapiens, UniProt P41587); assay: Alpha screen cAMP in vitro potency, human VPAC2 receptor; type: cell-based; conditions: cAMP generation; single result from two analyses performed in a single run; read-out: Human VPAC2 Receptor: Alpha Screen EC50
# T1 construct: expressed in transfected cells
# T1 sequence (P41587 24-438): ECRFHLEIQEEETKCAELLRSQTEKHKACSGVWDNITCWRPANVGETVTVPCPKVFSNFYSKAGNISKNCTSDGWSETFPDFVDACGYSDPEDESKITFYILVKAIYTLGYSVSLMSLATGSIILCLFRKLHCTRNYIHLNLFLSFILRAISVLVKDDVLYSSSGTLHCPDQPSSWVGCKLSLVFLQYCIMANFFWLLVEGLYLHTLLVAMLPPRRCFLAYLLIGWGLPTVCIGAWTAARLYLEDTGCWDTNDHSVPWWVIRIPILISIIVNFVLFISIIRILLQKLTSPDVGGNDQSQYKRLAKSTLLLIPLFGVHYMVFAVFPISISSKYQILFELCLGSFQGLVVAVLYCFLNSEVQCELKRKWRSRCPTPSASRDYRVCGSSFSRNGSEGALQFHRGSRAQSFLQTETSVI
# Summary of the method: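 Cells were detached with enzyme-free dissociation buffer, washed into stimulation buffer and used at 50,000 cells per data point. Stimuli and AlphaScreen acceptor beads were added for 60 minutes, then lysis buffer with donor beads for 60 to 120 minutes; the AlphaScreen signal reports intracellular cAMP.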
# human VPAC2 [3] = target: T1, human VPAC2; assay: Filter binding assay, membranes of stable VPAC2 cell line, 125I-labeled VIP tracer (Table 2); conditions: read-out: Human VPAC2 Receptor Binding
# Summary of the method: (§1)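 Membranes 2.5 μg/well; tracer ~40000 cpm; buffer 25 mM HEPES pH 7.4, 0.5% protease-free BSA; 1 h incubation, shaking. Glass-fibre filtration (0.5% polyethyleneamine presoak, 0.2% BSA block), 3× HEPES wash, dry 1 h at 60° C, scintillation count.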
# human VPAC1 = target: T2, human VPAC1 (Homo sapiens, UniProt P32241); assay: Filter binding assay, membranes of cells transiently transfected with human VPAC1, 125I-labeled VIP tracer (Table 2); design: expressed in transfected cells; conditions: read-out: Human VPAC1 Receptor Binding
# T2 sequence (P32241 31-457): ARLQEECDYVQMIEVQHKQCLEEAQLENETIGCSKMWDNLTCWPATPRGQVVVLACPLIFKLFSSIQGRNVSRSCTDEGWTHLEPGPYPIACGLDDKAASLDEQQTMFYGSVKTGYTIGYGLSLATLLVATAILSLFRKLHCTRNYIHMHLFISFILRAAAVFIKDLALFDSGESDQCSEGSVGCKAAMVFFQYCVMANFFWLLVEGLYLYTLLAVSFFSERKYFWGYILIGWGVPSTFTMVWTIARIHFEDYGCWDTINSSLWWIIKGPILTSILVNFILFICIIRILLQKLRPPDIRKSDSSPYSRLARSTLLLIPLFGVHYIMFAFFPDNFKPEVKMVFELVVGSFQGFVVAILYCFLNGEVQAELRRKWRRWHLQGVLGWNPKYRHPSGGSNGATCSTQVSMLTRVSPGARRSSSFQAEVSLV
# Summary of the method: as §1
Molecule,Rat Serum Stability (estimated purity in % after 18 hours) [1],EC50 (human VPAC2 [2]),IC50 (human VPAC2 [3]),IC50 (human VPAC1)
CCCCCC(=O)N[C@@H](Cc1c[nH]cn1)C(=O)N[C@@H](CO)C(=O)N[C@@H](CC(=O)O)C(=O)N[C@@H](C)C(=O)N[C@H](C(=O)N[C@@H](Cc1ccccc1)C(=O)N[C@H](C(=O)N[C@@H](CC(=O)O)C(=O)N[C@@H](CC(N)=O)C(=O)N[C@@H](Cc1ccc(O)cc1)C(=O)N[C@H](C(=O)N[C@@H](C)C(=O)N[C@@H](CC(C)C)C(=O)N[C@@H](CCCNC(=N)N)C(=O)NC(C)(C)C(=O)N[C@@H](CCC(N)=O)C(=O)N[C@H](C(=O)N[C@@H](C)C(=O)N[C@@H](C)C(=O)NC(C)(C)C(=O)N[C@@H](CCCCN)C(=O)N[C@@H](Cc1ccc(O)cc1)C(=O)N[C@@H](CC(C)C)C(=O)N[C@@H](CCC(N)=O)C(=O)N[C@@H](CO)C(=O)N[C@H](C(=O)N[C@@H](CCCN)C(=O)N[C@@H](CC(N)=O)C(=O)N[C@@H](CCCN)C(=O)NCC(=O)NCC(=O)N1CCC[C@H]1C(=O)N[C@@H](CO)C(=O)N[C@@H](CO)C(=O)NCC(=O)N[C@@H](C)C(=O)N1CCC[C@H]1C(=O)N1CCC[C@H]1C(=O)N1CCC[C@H]1C(=O)N[C@@H](CO)C(=O)O)[C@@H](C)CC)C(C)C)[C@@H](C)O)[C@@H](C)O)C(C)C [Agonist P366],92.00%,2.6 nM,,
Hexanoyl-HSDAVFTDNYTRLRKQVAAKKALQSIKNKRYGGPSSGAPPPS [Agonist P229],<5.00%,2.6 nM,,
CCCCCC(=O)N[C@@H](Cc1c[nH]cn1)C(=O)N[C@@H](CO)C(=O)N[C@@H](CC(=O)O)C(=O)N[C@@H](C)C(=O)N[C@H](C(=O)N[C@@H](Cc1ccccc1)C(=O)N[C@H](C(=O)N[C@@H](CC(=O)O)C(=O)N[C@@H](CC(N)=O)C(=O)N[C@@H](Cc1ccc(O)cc1)C(=O)N[C@H](C(=O)N[C@@H](CCCN)C(=O)N[C@@H](CC(C)C)C(=O)N[C@@H](CCCNC(=N)N)C(=O)NC(C)(C)C(=O)N[C@@H](CCC(N)=O)C(=O)N[C@H](C(=O)N[C@@H](C)C(=O)N[C@@H](C)C(=O)NC(C)(C)C(=O)N[C@@H](CCCCN)C(=O)N[C@@H](Cc1ccc(O)cc1)C(=O)N[C@@H](CC(C)C)C(=O)N[C@@H](CCC(N)=O)C(=O)N[C@@H](CO)C(=O)N[C@H](C(=O)N[C@@H](CCCN)C(=O)N[C@@H](CC(N)=O)C(=O)N[C@@H](CCCN)C(=O)NCC(=O)NCC(=O)N1CCC[C@H]1C(=O)N[C@@H](CO)C(=O)N[C@@H](CO)C(=O)NCC(=O)N[C@@H](C)C(=O)N1CCC[C@H]1C(=O)N1CCC[C@H]1C(=O)N1CCC[C@H]1C(=O)N[C@@H](CO)C(=O)O)[C@@H](C)CC)[C@@H](C)CC)[C@@H](C)O)[C@@H](C)O)C(C)C [Agonist P365] (Hexanoyl-HSDAVFTDNYT[Orn]LR[Aib]QIAA[Aib]KYLQSI[Orn]N[Orn]GGPSSGAPPPS-OH; C-terminus assumed),91.13%,0.13 nM,,
Hexanoyl-HSDA[dV]FTDNYTRLRKQVAAKKYLQSIKNKRYGGPSSGAPPPS [Agonist P210],<0.91%,,0.68 nM,395 nM
CCCCCC(=O)N[C@@H](Cc1c[nH]cn1)C(=O)N[C@@H](CO)C(=O)N[C@@H](CC(=O)O)C(=O)N[C@@H](C)C(=O)N[C@H](C(=O)N[C@@H](Cc1ccccc1)C(=O)N[C@H](C(=O)N[C@@H](CC(=O)O)C(=O)N[C@@H](CC(N)=O)C(=O)N[C@@H](Cc1ccc(O)cc1)C(=O)N[C@H](C(=O)N[C@@H](CCCNC(=N)N)C(=O)N[C@@H](CC(C)C)C(=O)N[C@@H](CCCNC(=N)N)C(=O)NC(C)(C)C(=O)N[C@@H](CCC(N)=O)C(=O)N[C@H](C(=O)N[C@@H](C)C(=O)N[C@@H](C)C(=O)NC(C)(C)C(=O)N[C@@H](CCCCN)C(=O)N[C@@H](Cc1ccc(O)cc1)C(=O)N[C@@H](CC(C)C)C(=O)N[C@@H](CCC(N)=O)C(=O)N[C@@H](CO)C(=O)N[C@H](C(=O)N[C@@H](CCCN)C(=O)N[C@@H](CCC(N)=O)C(=O)N[C@@H](CCCN)C(=O)NCC(=O)NCC(=O)N1CCC[C@H]1C(=O)N[C@@H](CO)C(=O)N[C@@H](CO)C(=O)NCC(=O)N[C@@H](C)C(=O)N1CCC[C@H]1C(=O)N1CCC[C@H]1C(=O)N1CCC[C@H]1C(=O)N[C@@H](CO)C(=O)O)[C@@H](C)CC)C(C)C)[C@@H](C)O)[C@@H](C)O)C(C)C [Agonist P356],45.17%,,,
Hexanoyl-HSDAVFTDNYTRL[Aib]KQVAAKQYLQSIKNKRYGGPSSGAPPPS [Agonist P249],12.9%,,,
CCCCCC(=O)N[C@@H](Cc1c[nH]cn1)C(=O)N[C@@H](CO)C(=O)N[C@@H](CC(=O)O)C(=O)N[C@@H](C)C(=O)N[C@H](C(=O)N[C@@H](Cc1ccccc1)C(=O)N[C@H](C(=O)N[C@@H](CC(=O)O)C(=O)N[C@@H](CC(N)=O)C(=O)N[C@@H](Cc1ccc(O)cc1)C(=O)N[C@H](C(=O)N[C@@H](CCCNC(=N)N)C(=O)N[C@@H](CC(C)C)C(=O)N[C@@H](CCCNC(=N)N)C(=O)NC(C)(C)C(=O)N[C@@H](CCC(N)=O)C(=O)N[C@H](C(=O)N[C@@H](C)C(=O)N[C@@H](C)C(=O)NC(C)(C)C(=O)N[C@@H](CCCCN)C(=O)N[C@@H](Cc1ccc(O)cc1)C(=O)N[C@@H](CC(C)C)C(=O)N[C@@H](CCC(N)=O)C(=O)N[C@@H](CO)C(=O)N[C@H](C(=O)N[C@@H](CCCCN)C(=O)NC(C)(C)C(=O)NCC(=O)NCC(=O)N1CCC[C@H]1C(=O)N[C@@H](CO)C(=O)N[C@@H](CO)C(=O)NCC(=O)N[C@@H](C)C(=O)N1CCC[C@H]1C(=O)N1CCC[C@H]1C(=O)N1CCC[C@H]1C(=O)N[C@@H](CO)C(=O)O)[C@@H](C)CC)C(C)C)[C@@H](C)O)[C@@H](C)O)C(C)C [Agonist P355],35.94%,0.1 nM,,
Hexanoyl-HSDAVFTDNYTRLRKQVAAKK[Aib]LQSIKNKRYGGPSSGAPPPS [Agonist P228],<5.00%,,,
CCCCCC(=O)N[C@@H](Cc1c[nH]cn1)C(=O)N[C@@H](CO)C(=O)N[C@@H](CC(=O)O)C(=O)N[C@@H](C)C(=O)N[C@H](C(=O)N[C@@H](Cc1ccccc1)C(=O)N[C@H](C(=O)N[C@@H](CC(=O)O)C(=O)N[C@@H](CC(N)=O)C(=O)N[C@@H](Cc1ccc(O)cc1)C(=O)N[C@H](C(=O)N[C@@H](CCCNC(=N)N)C(=O)N[C@@H](CC(C)C)C(=O)N[C@@H](CCCNC(=N)N)C(=O)NC(C)(C)C(=O)N[C@@H](CCC(N)=O)C(=O)N[C@H](C(=O)N[C@@H](C)C(=O)N[C@@H](C)C(=O)NC(C)(C)C(=O)N[C@@H](CCCCN)C(=O)N[C@@H](Cc1ccc(O)cc1)C(=O)N[C@@H](CC(C)C)C(=O)N[C@@H](CCC(N)=O)C(=O)N[C@@H](CO)C(=O)N[C@H](C(=O)N[C@@H](CCCCN)C(=O)N[C@@H](CCCCN)C(=O)NCC(=O)NCC(=O)N1CCC[C@H]1C(=O)N[C@@H](CO)C(=O)N[C@@H](CO)C(=O)NCC(=O)N[C@@H](C)C(=O)N1CCC[C@H]1C(=O)N1CCC[C@H]1C(=O)N1CCC[C@H]1C(=O)N[C@@H](CO)C(=O)O)[C@@H](C)CC)C(C)C)[C@@H](C)O)[C@@H](C)O)C(C)C [Agonist P351],18.52%,0.11 nM,,
Hexanoyl-HSDAVFTDNYTRLRKQVAAKKYTQSIKNKRYGGPSSGAPPPS [Agonist P232],<5.00%,1.94 nM,,
Hexanoyl-HSDAVFTDNYT[Aib]LR[Aib]QVAA[Aib]KYLQSIKNKRYGGPSSGAPPPS [Agonist P345],20.23%,,19.3 nM,> 3000 nM
Hexanoyl-HSDIVFTDNYTRLRKQVAAKKYLQSIKNKRYGGPSSGAPPPS [Agonist P221],0.87%,,,
Hexanoyl-HSDLVFTDNYTRLRKQVAAKKYLQSIKNKRYGGPSSGAPPPS [Agonist P223],1.52%,,,
